Experimental data as given in US20140242151A1, “ADHESIVE SKIN PATCH” (Sekisui Chemical Co., Ltd., priority 2003, published 2014).

settings: in 2-octyl-1-dodecanol, 2-hexyl-1-decanol, isostearyl alcohol or oleyl alcohol; temperature range of 4 to 50° C.
Experimental: 50 or 150 parts by weight of tulobuterol was added to each of the following resolvents in such a manner that the total amount of an obtained tulobuterol solution became 1000 parts by weight: 2-octyl-1-dodecanol (manufactured by Cognis Japan Ltd., under the trade name of “EUTANOL G”), 2-hexyl-1-decanol (manufactured by Cognis Japan Ltd., under the trade name of “EUTANOL G16N”), isostearyl alcohol (manufactured by Kokyu Alcohol Kogyo Co., Ltd., under the trade name of “Isostearyl Alcohol EX”), oleyl alcohol (manufactured by Kokyu Alcohol Kogyo Co., Ltd., under the trade name of “Oleyl Alcohol VP”), cetanol (hexadecyl alcohol) (manufactured by NOF Corporation, under the trade name of “NAA-44”), isopropyl myristate (manufactured by Nikko Chemicals Co., Ltd., under the trade name of “IPM-100”), decyl oleate (manufactured by Cognis Japan Ltd., under the trade name of “CETIOL V”), medium chain triglyceride (manufactured by NOF Corporation, under the trade name of “PANACET 800”), polyethylene glycol (manufactured by Maruishi Pharmaceutical Co., Ltd., under the trade name of “MACROGOL 400 (Japanese Pharmacopoeia)”), propylene glycol (manufactured by Maruishi Pharmaceutical Co., Ltd., under the trade name of “Propylene Glycol (Japanese Pharmacopoeia)”), and liquid paraffin (manufactured by Sankei Sangyo K.K., under the trade name of “Liquid Paraffin No. 350”). Each of the thus obtained tulobuterol solutions was kept at 50° C. for 120 minutes, and was then kept at 20° C. for 24 hours, and was further kept at 4° C. for 24 hours.
At this time, the tulobuterol solution was visually observed to see whether crystalline tulobuterol was deposited or not after the completion of each warming of the tulobuterol solution at 50, 20 or 4° C. The results are shown in Table 1 wherein the mark “◯” represents a case where crystalline tulobuterol was not observed, and the mark “X” represents a case where crystalline tulobuterol was observed.
The solubility of each of these drugs in these resolvents was determined in the same manner as in a case where the solubility of tulobuterol in these resolvents was determined.
50 or 150 parts by weight of tyramine (manufactured by Tokyo Chemical Industries Co., Ltd.) was added to each of the above-mentioned resolvents (i.e., 2-octyl-1-dodecanol, isopropyl myristate, polyethylene glycol, and propylene glycol) in such a manner that the total amount of an obtained tyramine solution became 1000 parts by weight. The solubility of tyramine in these resolvents was determined in the same manner as in a case where the solubility of tulobuterol in these resolvents was determined.

Row | Stable dissolution in resolvents of the invention | Compound
1 | not stably dissolved | CCCCOC(=O)[C@@H](N)Cc1ccc(O)c(O)c1 [levodopa butyl ester]
2 | not stably dissolved | CCOc1ccc(NC(C)=O)cc1 [phenacetin]
3 | not stably dissolved | N[C@@H](Cc1ccccc1)C(=O)O [phenylalanine]
4 | stably dissolved | CC(C)(C)NCC(O)c1ccccc1Cl (stereo not shown) [tulobuterol]
5 | not stably dissolved | NCCc1ccc(O)cc1 [tyramine]

Row | Compound | Stable dissolution in resolvents of the invention
6 | CNC[C@H](O)c1ccc(O)c(O)c1 [epinephrine] | not stably dissolved

same assay, conditions: resolvent cetanol; solution kept at 50° C.

Row | Dissolution in cetanol | Compound
7 | completely dissolved | CC(C)(C)NCC(O)c1ccccc1Cl (stereo not shown) [tulobuterol]
